“And” between values parts separate entries of the source, which are not always exact repeats. Equal values may be shown once.
Test system: citric acid (1M) evoked cough in guinea pigs
Test: Citric acid (1M) aerosol-evoked coughs and sneezes in conscious guinea pigs after oral pre-treatment
Assay type: in vivo, Male Dunkin Hartley guinea pigs
Experimental: The guinea pig species used in one study was twenty four Male Dunkin Hartley guinea pigs, each weighing between 300 and 350 g, which were supplied by Marshall Bioresources Ltd, UK.
A test compound, Ifenprodil, and Gefapixant (in powder form) were prepared and formulated by initially adding 100% propylene glycol at the required volume for the final treatment buffer. The additional buffer ingredients were added in a stepwise fashion, initially solutol and then captisol. Each ingredient was added in a volume equivalent to that which is required for the final volume of treatment buffer for the stock formulation.
In particular, for Gefapixant, this was 0.7 mg/mL, a concentration that delivers 3.5 mg/Kg in a dose volume of 5 mL/Kg. For Ifenprodil, this was 0.3 mg/mL, a concentration that delivers 1.5 mg/Kg in a dose volume of 5 mL/Kg.
Prior to the addition of each buffer ingredient, the test compound formulations were sonicated for 15 min using a Branson 1510 Sonicator. Afterwards, the initial formulation of the test compound and Gefapixant were diluted with a prepared buffer vehicle to provide additional dosing formulations. This was 0.01 to 0.2 mg/ml, preferably 0.06 mg/mL, a dose that delivers 0.3 mg/Kg in a dose volume of 5 mL/Kg.
The final test compound buffer vehicle comprised of 10:10:80 mix of propylene glycol:20% Solutol in PBS:5% Captisol in PBS.
All final test and control formulations were sonicated for 30 min prior to dosing to generate an even suspension or to ensure that the formulation had visibly dissolved.
The animals were first pre-treated (5 mL/Kg, p.o.) with the vehicle, the test compound, or Gefapixant prior to tussive agent (citric acid) exposure, using the amounts set out in Table 1 below. In each case, the route of administration of the treatment was oral.
Animals receiving Gefapixant (3.5 mg/Kg) were dosed 2 hours prior to tussive agent exposure. Animals receiving Ifenprodil (1.5 mg/Kg) were dosed 30 minutes prior to tussive agent exposure.
10 min prior to the tussive evaluation, each animal was individually placed into a purpose built exposure chamber with a supplied airflow through a nebuliser of 2 L/min, and allowed to settle into its new environment.
Following the acclimatisation period, each animal was then exposed for 10 min to an aerosol of 1M citric acid using an ultrasonic nebuliser (Aerogen) set at a nominal liquid consumption rate of 0.6 mL/min.
Coughs and sneezes elicited during the 10 minute aerosol of 1M citric acid, and a subsequent 5 minute observation period, were recorded manually to monitor the animal's welfare. […] The data was analysed for onset of cough, cough numbers and frequency, and sneezes.
The following measurements and assessments were taken for each guinea pig: • Mean total number of coughs evoked in each treatment group • Mean onset of first cough in each group • Mean number of coughs per minute during citric acid exposure in each treatment group
Inter-group deviations were statistically analyzed by a one-way analysis of variance (ANOVA). In the case of significant difference in the mean values among the different levels of treatment, comparisons versus the citric acid vehicle group were carried out using the Dunnett's test. p<0.05 was considered statistically significant.

[1] = Mean of n=6 animals, 10 min Citric acid (1M) exposure, Gefapixant 3.5 mg/Kg p.o., Ifenprodil 1.5 mg/Kg
[2] = Mean of n=6 animals, Post Exposure (5 mins) after 10 min Citric acid (1M), Gefapixant 3.5 mg/Kg p.o., Ifenprodil 1.5 mg/Kg
[3] = Total of n=6 animals, 10 min Citric acid (1M) exposure, Gefapixant 3.5 mg/Kg p.o., Ifenprodil 1.5 mg/Kg
[4] = Total of n=6 animals, Post Exposure (5 mins) after 10 min Citric acid (1M), Gefapixant 3.5 mg/Kg p.o., Ifenprodil 1.5 mg/Kg
[5] = individual animals (ID 1-6), 10 min Citric acid (1M) exposure, Gefapixant 3.5 mg/Kg p.o., Ifenprodil 1.5 mg/Kg
[6] = individual animals (ID 1-6), Post Exposure (5 mins) after 10 min Citric acid (1M), Gefapixant 3.5 mg/Kg p.o., Ifenprodil 1.5 mg/Kg

COc1cc(C(C)C)c(Oc2cnc(N)nc2N)cc1S(N)(=O)=O [Gefapixant]
Total Coughs, Mean (10 min citric acid (1M) exposure + 5 min post exposure, group mean, n=6): 23.67 | Total Coughs, individual animal (10 min citric acid (1M) exposure + 5 min post exposure, individual animals 1-6): 16 and 26 and 24 and 23 and 33 and 20 | average number of coughs per animal (total number of coughs) (10 min citric acid (1M) exposure + 5 min recovery, Gefapixant 3.5 mg/Kg p.o. 2 hrs prior, Ifenprodil 1.5 mg/Kg p.o. 30 min prior, n=6): 23.67 coughs per animal | reduction in mean cough frequency vs untreated control (Ifenprodil 1.5 mg/kg (p<0.01), Gefapixant 3.5 mg/kg (p<0.05)): 20% | Sneezes, Observation Period 0-1, group Mean [1]: 0.2 | Sneezes, Observation Period 1-2, group Mean [1]: 0.3 | Sneezes, Observation Period 2-3, group Mean [1]: 0.3 | Sneezes, Observation Period 3-4, group Mean [1]: 0.2 | Sneezes, Observation Period 4-5, group Mean [1]: 0.5 | Sneezes, Observation Period 5-6, group Mean [1]: 0.5 | Sneezes, Observation Period 6-7, group Mean [1]: 0.5 | Sneezes, Observation Period 7-8, group Mean [1]: 0.0 | Sneezes, Observation Period 8-9, group Mean [1]: 0.5 | Sneezes, Observation Period 9-10, group Mean [1]: 0.2 | Sneezes, Observation Period 10-11, group Mean [2]: 0.0 | Sneezes, Observation Period 11-12, group Mean [2]: 0.0 | Sneezes, Observation Period 12-13, group Mean [2]: 0.0 | Sneezes, Observation Period 13-14, group Mean [2]: 0.0 | Sneezes, Observation Period 14-15, group Mean [2]: 0.0 | Total Sneezes, group Mean (Mean of n=6 animals, whole observation period 0-15 (10 min Citric acid (1M) exposure + Post Exposure 5 mins), Gefapixant 3.5 mg/Kg p.o., Ifenprodil 1.5 mg/Kg): 3.17 | Sneezes, Observation Period 0-1, group Total [3]: 1.0 | Sneezes, Observation Period 1-2, group Total [3]: 2.0 | Sneezes, Observation Period 2-3, group Total [3]: 2.0 | Sneezes, Observation Period 3-4, group Total [3]: 1.0 | Sneezes, Observation Period 4-5, group Total [3]: 3.0 | Sneezes, Observation Period 5-6, group Total [3]: 3.0 | Sneezes, Observation Period 6-7, group Total [3]: 3.0 | Sneezes, Observation Period 7-8, group Total [3]: 0.0 | Sneezes, Observation Period 8-9, group Total [3]: 3.0 | Sneezes, Observation Period 9-10, group Total [3]: 1.0 | Sneezes, Observation Period 10-11, group Total [4]: 0.0 | Sneezes, Observation Period 11-12, group Total [4]: 0.0 | Sneezes, Observation Period 12-13, group Total [4]: 0.0 | Sneezes, Observation Period 13-14, group Total [4]: 0.0 | Sneezes, Observation Period 14-15, group Total [4]: 0.0 | first onset of cough (citric acid (1M) exposure, Gefapixant 3.5 mg/Kg p.o., Ifenprodil 1.5 mg/Kg p.o., group mean, n=6): 49.7 s | average number of sneezes per animal (citric acid (1M) exposure, Gefapixant 3.5 mg/Kg p.o., Ifenprodil 1.5 mg/Kg p.o., n=6): 3.17 sneezes per animal | Onset (sec), Mean (citric acid (1M) exposure, group mean, n=6): 49.7 s | Onset (sec), individual animal (citric acid (1M) exposure, individual animals 1-6): 72 s and 24 s and 64 s and 36 s and 32 s and 70 s | Sneezes, Observation Period 0-1 [5]: 0 (5×) and 1 | Sneezes, Observation Period 1-2 [5]: 0 (4×) and 1 (2×) | Sneezes, Observation Period 2-3 [5]: 1 (2×) and 0 (4×) | Sneezes, Observation Period 3-4 [5]: 0 (5×) and 1 | Sneezes, Observation Period 4-5 [5]: 1 (3×) and 0 (3×) | Sneezes, Observation Period 5-6 [5]: 0 (3×) and 1 (3×) | Sneezes, Observation Period 6-7 [5]: 1 (3×) and 0 (3×) | Sneezes, Observation Period 7-8 [5]: 0 | Sneezes, Observation Period 8-9 [5]: 1 (3×) and 0 (3×) | Sneezes, Observation Period 9-10 [5]: 0 (5×) and 1 | Sneezes, Observation Period 10-11 [6]: 0 | Sneezes, Observation Period 11-12 [6]: 0 | Sneezes, Observation Period 12-13 [6]: 0 | Sneezes, Observation Period 13-14 [6]: 0 | Sneezes, Observation Period 14-15 [6]: 0 | Total Sneezes (individual animals (ID 1-6), whole observation period 0-15 (10 min Citric acid (1M) exposure + Post Exposure 5 mins), Gefapixant 3.5 mg/Kg p.o., Ifenprodil 1.5 mg/Kg): 4 (2×) and 3 and 5 and 2 and 1 | Cough, observation period 0-1, Mean (min 0-1 of citric acid (1M) exposure, group mean, n=6): 0.5 | Cough, observation period 0-1, individual animal (min 0-1 of citric acid (1M) exposure, individual animals 1-6): 0 (3×) and 1 (3×) | Cough, observation period 0-1, Total (min 0-1 of citric acid (1M) exposure, sum over 6 animals): 3.0 | Cough, observation period 1-2, Mean (min 1-2 of citric acid (1M) exposure, group mean, n=6): 2.0 | Cough, observation period 1-2, individual animal (min 1-2 of citric acid (1M) exposure, individual animals 1-6): 1 (2×) and 3 (2×) and 2 (2×) | Cough, observation period 1-2, Total (min 1-2 of citric acid (1M) exposure, sum over 6 animals): 12.0 | Cough, observation period 2-3, Mean (min 2-3 of citric acid (1M) exposure, group mean, n=6): 3.0 | Cough, observation period 2-3, individual animal (min 2-3 of citric acid (1M) exposure, individual animals 1-6): 1 and 3 (2×) and 4 and 5 and 2 | Cough, observation period 2-3, Total (min 2-3 of citric acid (1M) exposure, sum over 6 animals): 18.0 | Cough, observation period 3-4, Mean (min 3-4 of citric acid (1M) exposure, group mean, n=6): 2.3 | Cough, observation period 3-4, individual animal (min 3-4 of citric acid (1M) exposure, individual animals 1-6): 2 (3×) and 3 and 4 and 1 | Cough, observation period 3-4, Total (min 3-4 of citric acid (1M) exposure, sum over 6 animals): 14.0 | Cough, observation period 4-5, Mean (min 4-5 of citric acid (1M) exposure, group mean, n=6): 2.8 | Cough, observation period 4-5, individual animal (min 4-5 of citric acid (1M) exposure, individual animals 1-6): 2 (2×) and 3 (3×) and 4 | Cough, observation period 4-5, Total (min 4-5 of citric acid (1M) exposure, sum over 6 animals): 17.0 | Cough, observation period 5-6, Mean (min 5-6 of citric acid (1M) exposure, group mean, n=6): 2.7 | Cough, observation period 5-6, individual animal (min 5-6 of citric acid (1M) exposure, individual animals 1-6): 1 and 3 (3×) and 2 and 4 | Cough, observation period 5-6, Total (min 5-6 of citric acid (1M) exposure, sum over 6 animals): 16.0 | Cough, observation period 6-7, Mean (min 6-7 of citric acid (1M) exposure, group mean, n=6): 2.3 | Cough, observation period 6-7, individual animal (min 6-7 of citric acid (1M) exposure, individual animals 1-6): 1 and 2 (3×) and 4 and 3 | Cough, observation period 6-7, Total (min 6-7 of citric acid (1M) exposure, sum over 6 animals): 14.0 | Cough, observation period 7-8, Mean (min 7-8 of citric acid (1M) exposure, group mean, n=6): 1.7 | Cough, observation period 7-8, individual animal (min 7-8 of citric acid (1M) exposure, individual animals 1-6): 2 (4×) and 1 (2×) | Cough, observation period 7-8, Total (min 7-8 of citric acid (1M) exposure, sum over 6 animals): 10.0 | Cough, observation period 8-9, Mean (min 8-9 of citric acid (1M) exposure, group mean, n=6): 2.0 | Cough, observation period 8-9, individual animal (min 8-9 of citric acid (1M) exposure, individual animals 1-6): 2 (4×) and 3 and 1 | Cough, observation period 8-9, Total (min 8-9 of citric acid (1M) exposure, sum over 6 animals): 12.0 | Cough, observation period 9-10, Mean (min 9-10 of citric acid (1M) exposure, group mean, n=6): 1.7 | Cough, observation period 9-10, individual animal (min 9-10 of citric acid (1M) exposure, individual animals 1-6): 2 (3×) and 3 and 0 and 1 | Cough, observation period 9-10, Total (min 9-10 of citric acid (1M) exposure, sum over 6 animals): 10.0 | Cough, observation period 10-11, Mean (min 10-11, post exposure, group mean, n=6): 1.5 | Cough, observation period 10-11, individual animal (min 10-11, post exposure, individual animals 1-6): 1 (3×) and 2 (3×) | Cough, observation period 10-11, Total (min 10-11, post exposure, sum over 6 animals): 9.0 | Cough, observation period 11-12, Mean (min 11-12, post exposure, group mean, n=6): 0.5 | Cough, observation period 11-12, individual animal (min 11-12, post exposure, individual animals 1-6): 0 (3×) and 1 (3×) | Cough, observation period 11-12, Total (min 11-12, post exposure, sum over 6 animals): 3.0 | Cough, observation period 12-13, Mean (min 12-13, post exposure, group mean, n=6): 0.5 | Cough, observation period 12-13, individual animal (min 12-13, post exposure, individual animals 1-6): 1 (3×) and 0 (3×) | Cough, observation period 12-13, Total (min 12-13, post exposure, sum over 6 animals): 3.0 | Cough, observation period 13-14, Mean (min 13-14, post exposure, group mean, n=6): 0.2 | Cough, observation period 13-14, individual animal (min 13-14, post exposure, individual animals 1-6): 0 (5×) and 1 | Cough, observation period 13-14, Total (min 13-14, post exposure, sum over 6 animals): 1.0 | Cough, observation period 14-15, Mean (min 14-15, post exposure, group mean, n=6): 0.0 | Cough, observation period 14-15, individual animal (min 14-15, post exposure, individual animals 1-6): 0 | Cough, observation period 14-15, Total (min 14-15, post exposure, sum over 6 animals): 0.0
